Results: patent publication US11382328B2, “Rapid drug discovery methods for pathogen inactivation” (priority 2019, dated 2022)

System: E. coli strain W3110
Assay: Synergy assays: Biolog chemical sensitivity panels with Group IB metal, coefficient of drug interaction (CDI) from relative growth
Type: cell-based
Conditions: for CDI (coefficient of drug interaction), gold + biocide: Gold (μM); for CDI (coefficient of drug interaction), copper mixed with biocide: Copper (mM) section
[1] = Copper (mM), 1st of 3 copper concentrations (head line not shown), biocide concentration 1 of 4, E. coli
[2] = Copper (mM), 1st of 3 copper concentrations (head line not shown), biocide concentration 2 of 4, E. coli
[3] = Copper (mM), 1st of 3 copper concentrations (head line not shown), biocide concentration 3 of 4, E. coli
[4] = Copper (mM), 1st of 3 copper concentrations (head line not shown), biocide concentration 4 of 4, E. coli
[5] = Copper (mM), 2nd of 3 copper concentrations (head line not shown), biocide concentration 1 of 4, E. coli
[6] = Copper (mM), 2nd of 3 copper concentrations (head line not shown), biocide concentration 2 of 4, E. coli
[7] = Copper (mM), 2nd of 3 copper concentrations (head line not shown), biocide concentration 3 of 4, E. coli
[8] = Copper (mM), 2nd of 3 copper concentrations (head line not shown), biocide concentration 4 of 4, E. coli
[9] = Copper (mM), 3rd of 3 copper concentrations (head line not shown), biocide concentration 1 of 4, E. coli
[10] = Copper (mM), 3rd of 3 copper concentrations (head line not shown), biocide concentration 2 of 4, E. coli
[11] = Copper (mM), 3rd of 3 copper concentrations (head line not shown), biocide concentration 3 of 4, E. coli
[12] = Copper (mM), 3rd of 3 copper concentrations (head line not shown), biocide concentration 4 of 4, E. coli
[13] = first of 3 gold concentrations, biocide concentration 1 of 4
[14] = first of 3 gold concentrations, biocide concentration 2 of 4
[15] = first of 3 gold concentrations, biocide concentration 3 of 4
[16] = first of 3 gold concentrations, biocide concentration 4 of 4
[17] = second of 3 gold concentrations, biocide concentration 1 of 4
[18] = second of 3 gold concentrations, biocide concentration 2 of 4
[19] = second of 3 gold concentrations, biocide concentration 3 of 4
[20] = second of 3 gold concentrations, biocide concentration 4 of 4
[21] = third of 3 gold concentrations, biocide concentration 1 of 4
[22] = third of 3 gold concentrations, biocide concentration 2 of 4
[23] = third of 3 gold concentrations, biocide concentration 3 of 4
[24] = third of 3 gold concentrations, biocide concentration 4 of 4
[25] = Silver 0.5 μM, biocide concentration 1 of 4
[26] = Silver 0.5 μM, biocide concentration 2 of 4
[27] = Silver 0.5 μM, biocide concentration 3 of 4
[28] = Silver 0.5 μM, biocide concentration 4 of 4
[29] = Silver 1.0 μM, biocide concentration 1 of 4
[30] = Silver 1.0 μM, biocide concentration 2 of 4
[31] = Silver 1.0 μM, biocide concentration 3 of 4
[32] = Silver 1.0 μM, biocide concentration 4 of 4
[33] = Silver 5.0 μM, biocide concentration 1 of 4
[34] = Silver 5.0 μM, biocide concentration 2 of 4
[35] = Silver 5.0 μM, biocide concentration 3 of 4
[36] = Silver 5.0 μM, biocide concentration 4 of 4
[37] = Gold section of Table 5, first of three gold concentrations (μM, value not given), biocide concentration 2 of 4
[38] = Gold section of Table 5, second of three gold concentrations (μM, value not given), biocide concentration 2 of 4
[39] = Gold section of Table 5, third of three gold concentrations (μM, value not given), biocide concentration 2 of 4
[40] = Silver 0.5 μM, 4th of four biocide concentrations, E. coli
[41] = Silver 1.0 μM, 4th of four biocide concentrations, E. coli
[42] = Silver 5.0 μM, 4th of four biocide concentrations, E. coli
[43] = 2nd of 3 copper concentrations (value not shown), 4th of four biocide concentrations

NC(CO)C(=O)NO (racemic) [D,L-serine hydroxamate]
CDI (coefficient of drug interaction) [1]: 0.98
CDI (coefficient of drug interaction) [2]: 0.94
CDI (coefficient of drug interaction) [3]: 1.13
CDI (coefficient of drug interaction) [4]: Tox
CDI (coefficient of drug interaction) [5]: 0.77
CDI (coefficient of drug interaction) [6]: 0.78
CDI (coefficient of drug interaction) [7]: 1.03
CDI (coefficient of drug interaction) [8]: 3.47
CDI (coefficient of drug interaction) [9]: 0.62
CDI (coefficient of drug interaction) [10]: 0.66
CDI (coefficient of drug interaction) [11]: 1.18
CDI (coefficient of drug interaction) [12]: Tox
CDI (coefficient of drug interaction), gold + biocide [13]: 1.04
CDI (coefficient of drug interaction), gold + biocide [14]: 0.95
CDI (coefficient of drug interaction), gold + biocide [15]: 1.45
CDI (coefficient of drug interaction), gold + biocide [16]: 0.71
CDI (coefficient of drug interaction), gold + biocide [17]: 1.02
CDI (coefficient of drug interaction), gold + biocide [18]: 1.00
CDI (coefficient of drug interaction), gold + biocide [19]: 1.22
CDI (coefficient of drug interaction), gold + biocide [20]: Tox
CDI (coefficient of drug interaction), gold + biocide [21]: 0.96
CDI (coefficient of drug interaction), gold + biocide [22]: 0.94
CDI (coefficient of drug interaction), gold + biocide [23]: 1.00
CDI (coefficient of drug interaction), gold + biocide [24]: Tox
CDI [25]: 0.90
CDI [26]: 0.66
CDI [27]: 0.31
CDI [28]: Tox
CDI [29]: 0.89
CDI [30]: 0.77
CDI [31]: 0.62
CDI [32]: Tox
CDI [33]: 0.82
CDI [34]: 0.61
CDI [35]: 0.53
CDI [36]: Tox

CSCCC(N)C(=O)NO (racemic) [D,L-methionine hydroxamate]
CDI (coefficient of drug interaction) [2]: 1.19
CDI (coefficient of drug interaction) [3]: 1.02
CDI (coefficient of drug interaction) [4]: 0.91
CDI (coefficient of drug interaction) [5]: 0.84
CDI (coefficient of drug interaction) [6]: 0.95
CDI (coefficient of drug interaction) [7]: 2.26
CDI (coefficient of drug interaction) [8]: 3.51
CDI (coefficient of drug interaction) [9]: 0.98
CDI (coefficient of drug interaction) [11]: 1.51
CDI (coefficient of drug interaction) [12]: 1.54
CDI (coefficient of drug interaction), gold + biocide [13]: 1.08
CDI (coefficient of drug interaction), gold + biocide [14]: 1.10
CDI (coefficient of drug interaction), gold + biocide [15]: 1.06
CDI (coefficient of drug interaction), gold + biocide [16]: Tox
CDI (coefficient of drug interaction), gold + biocide [17]: 1.03
CDI (coefficient of drug interaction), gold + biocide [18]: 1.04
CDI (coefficient of drug interaction), gold + biocide [19]: 1.08
CDI (coefficient of drug interaction), gold + biocide [20]: Tox
CDI (coefficient of drug interaction), gold + biocide [21]: 0.92
CDI (coefficient of drug interaction), gold + biocide [22]: 0.96
CDI (coefficient of drug interaction), gold + biocide [23]: 0.93
CDI (coefficient of drug interaction), gold + biocide [24]: Tox
CDI [25]: 0.88
CDI [26]: 1.04
CDI [27]: Tox
CDI [28]: Tox
CDI [29]: 1.04
CDI [30]: 0.99
CDI [31]: Tox
CDI [32]: Tox
CDI [33]: 0.71
CDI [34]: 0.42
CDI [35]: Tox
CDI [36]: Tox

spiramycin
CDI (coefficient of drug interaction) [1]: 1.00
CDI (coefficient of drug interaction) [3]: 0.94
CDI (coefficient of drug interaction) [4]: Tox
CDI (coefficient of drug interaction) [5]: 0.89
CDI (coefficient of drug interaction) [6]: Tox
CDI (coefficient of drug interaction) [7]: Tox
CDI (coefficient of drug interaction) [8]: Tox
CDI (coefficient of drug interaction) [9]: 0.92
CDI (coefficient of drug interaction) [10]: 0.91
CDI (coefficient of drug interaction) [11]: 3.40
CDI (coefficient of drug interaction) [12]: Tox
CDI (coefficient of drug interaction) (Gold section of Table 5, first of three gold concentrations (μM, value not given), biocide concentration 1 of 4): 1.03
CDI (coefficient of drug interaction) [37]: 1.00
CDI (coefficient of drug interaction) (Gold section of Table 5, first of three gold concentrations (μM, value not given), biocide concentration 3 of 4): Tox
CDI (coefficient of drug interaction) (Gold section of Table 5, first of three gold concentrations (μM, value not given), biocide concentration 4 of 4): Tox
CDI (coefficient of drug interaction) [38]: 0.67
CDI (coefficient of drug interaction) (Gold section of Table 5, second of three gold concentrations (μM, value not given), biocide concentration 3 of 4): Tox
CDI (coefficient of drug interaction) (Gold section of Table 5, second of three gold concentrations (μM, value not given), biocide concentration 4 of 4): Tox
CDI (coefficient of drug interaction) (Gold section of Table 5, third of three gold concentrations (μM, value not given), biocide concentration 1 of 4): 0.84
CDI (coefficient of drug interaction) [39]: 0.33
CDI (coefficient of drug interaction) (Gold section of Table 5, third of three gold concentrations (μM, value not given), biocide concentration 3 of 4): Tox
CDI (coefficient of drug interaction) (Gold section of Table 5, third of three gold concentrations (μM, value not given), biocide concentration 4 of 4): Tox
CDI [25]: 0.83
CDI [26]: Tox
CDI [27]: Tox
CDI [28]: Tox
CDI [29]: 0.96
CDI [30]: Tox
CDI [31]: Tox
CDI [32]: Tox
CDI [33]: 0.83
CDI [34]: Tox
CDI [35]: Tox
CDI [36]: Tox

O=C1C2CC=CCC2C(=O)N1SC(Cl)(Cl)Cl (centres unmarked) [captan]
CDI (coefficient of drug interaction), silver + biocide [40]: Tox
CDI (coefficient of drug interaction), silver + biocide [41]: Tox
CDI (coefficient of drug interaction), silver + biocide [42]: Tox

O=C1CN(/N=C/c2ccc([N+](=O)[O-])o2)C(=O)N1 [nitrofurantoin]
CDI (coefficient of drug interaction) (Gold 50 μM, biocide concentration 4 of 4, E. coli): Tox

CN(C)S(=O)(=O)N(SC(F)(Cl)Cl)c1ccccc1 [dichlofluanid]
CDI (coefficient of drug interaction), copper mixed with biocide (1st of 3 copper concentrations (value not shown), 4th of four biocide concentrations): Tox
CDI (coefficient of drug interaction), copper mixed with biocide (2nd of 3 copper concentrations (value not shown), 1st of four biocide concentrations): Tox
CDI (coefficient of drug interaction), copper mixed with biocide [43]: Tox
CDI (coefficient of drug interaction), copper mixed with biocide (3rd of 3 copper concentrations (value not shown), 4th of four biocide concentrations): Tox
CDI (coefficient of drug interaction) [37]: Tox
CDI (coefficient of drug interaction) [38]: Tox
CDI (coefficient of drug interaction) [39]: Tox
CDI (coefficient of drug interaction), silver + biocide (Silver 0.5 μM, 2nd of four biocide concentrations, E. coli): Tox
CDI (coefficient of drug interaction), silver + biocide (Silver 1.0 μM, 1st of four biocide concentrations, E. coli): Tox
CDI (coefficient of drug interaction), silver + biocide (Silver 1.0 μM, 2nd of four biocide concentrations, E. coli): Tox
CDI (coefficient of drug interaction), silver + biocide (Silver 5.0 μM, 1st of four biocide concentrations, E. coli): Tox
CDI (coefficient of drug interaction), silver + biocide (Silver 5.0 μM, 2nd of four biocide concentrations, E. coli): Tox

Nc1ccc(S(=O)(=O)Nc2ncccn2)cc1 [sulfadiazine]
cell toxicity / growth curves with and without silver: enhanced cell toxicity

NNC(N)=O [semicarbazide]
CDI (coefficient of drug interaction), copper mixed with biocide [43]: Tox
CDI (coefficient of drug interaction), silver + biocide (Silver 0.5 μM, 3rd of four biocide concentrations, E. coli): Tox
CDI (coefficient of drug interaction), silver + biocide [40]: Tox
CDI (coefficient of drug interaction), silver + biocide (Silver 1.0 μM, 3rd of four biocide concentrations, E. coli): Tox
CDI (coefficient of drug interaction), silver + biocide [41]: Tox
CDI (coefficient of drug interaction), silver + biocide (Silver 5.0 μM, 3rd of four biocide concentrations, E. coli): Tox
CDI (coefficient of drug interaction), silver + biocide [42]: Tox
